Assay results from publication PMC4833353 (PLoS Pathogens, 2016).
Several values for one entry are separate records, joined by “and”; a condition that tells them apart may be missing. Identical values can stand only once.

How the values were obtained:
ET CTB [1] = molecular target: T1, ET CTB (Vibrio cholerae serotype O1, UniProt P01556); assay: biochemical; assay type: binding; details: for Kd: K D
ET CTB [2] = molecular target: T1, ET CTB; assay type: binding

T1 sequence (P01556 22-124 limits assumed): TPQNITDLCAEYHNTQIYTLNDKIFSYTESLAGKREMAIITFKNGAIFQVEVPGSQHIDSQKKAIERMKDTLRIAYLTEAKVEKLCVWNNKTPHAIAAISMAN

Row | Molecule | binding affinity (in words) (ET CTB [1]) | Kd (ET CTB [1]) | binding to CTB (ET CTB [1]) | binding of ET CTB to GM1-coated wells after preincubation with ligand (ET CTB [2])
1 | CC(=O)N[C@@H]1[C@@H](O[C@@H]2O[C@@H](C)[C@@H](O)[C@@H](O)[C@@H]2O)[C@H](O[C@@H]2O[C@H](CO)[C@H](O)[C@H](O[C@H]3O[C@H](CO)[C@H](O)[C@H](O)[C@H]3NC(C)=O)[C@H]2O[C@@H]2O[C@@H](C)[C@@H](O)[C@@H](O)[C@@H]2O)[C@@H](CO)O[C@H]1O [A-penta-BGA, GalNAcα3[Fucα2]Galβ4[Fucα3]GlcNAc] | binding very weakly | > 30 mM | – | –
2 | GalNAcα3[Fucα2]Galβ3[Fucα4]GlcNAc | – | – | very weak to no binding | –
3 | CC(=O)N[C@H]1[C@@H](O[C@H]2[C@@H](O)[C@@H](CO)O[C@@H](O[C@H]3[C@H](O[C@@H]4O[C@@H](C)[C@@H](O)[C@@H](O)[C@@H]4O)[C@@H](O)[C@H](O)O[C@@H]3CO)[C@@H]2O[C@@H]2O[C@@H](C)[C@@H](O)[C@@H](O)[C@@H]2O)O[C@H](CO)[C@H](O)[C@@H]1O [A-penta-HMO, GalNAcα3[Fucα2]Galβ4[Fucα3]Glc] | – | 4.6 mM and 4.57 mM | – | interfered with binding of CTB to GM1
